Where two headings read alike, the source gives them in different places.
Experiments:
[1] = system: iCell endothelial cells (human iPSC-derived ECs); assay: Tube formation (tubulogenesis) assay in iCell endothelial cells, 18 h; type: cell-based; details: Homo sapiens, Endothelial cell, 18 hr; for activity at 0.1 µM: 0.10 µM
How it was run: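 Tube formation was measured by calcein AM imaging after overnight compound exposure (37°C, 0.5% DMSO vehicle) of human iPSC-derived ECs, 7,500/well, on reduced-growth-factor Geltrex in starvation medium. Vehicle-normalized data fitted to four-parameter logistic; POD set at one vehicle SD; without response, 100 μM taken as NOAEL.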

[2] = system: iCell endothelial cells (human iPSC-derived ECs); assay: High-content imaging cytotoxicity in iCell endothelial cells, 24 h; type: cell-based; details: Homo sapiens, Endothelial cell, 24 hr; for viability at 0.1 µM / activity at 0.1 µM: 0.10 µM
How it was run: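 Readouts were vehicle-normalised and fitted to a four-parameter logistic model. POD was set at one SD beyond 0.5% DMSO control means, and 100 µM was assigned when no response was seen. Cells were monolayers of iCell endothelial cells imaged after 24 h compound exposure using nuclear, mitochondrial and calcein dyes.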

[3] = iPSC-EC tube formation, 0.00 µM control = 100.00, read-out: endo.mtl.18hr
[4] = iPSC-EC tube formation, 0.00 µM control = 100.00, read-out: endo.tlps.18hr
[5] = iPSC-EC tube formation, 0.00 µM control = 100.00, read-out: endo.tta.18hr
[6] = iPSC-EC tube formation, 0.00 µM control = 100.00, read-out: endo.ttl.18hr
[7] = iPSC-EC, 0.00 µM control = 100.00, read-out: endo.cyto.24hr
[8] = iPSC-EC, 0.00 µM control = 100.00, read-out: endo.mito.24hr
[9] = iPSC-EC, 0.00 µM control = 100.00, read-out: endo.mitoint.24hr
[10] = iPSC-EC, 0.00 µM control = 100.00, read-out: endo.nma.24hr
[11] = iPSC-EC, 0.00 µM control = 100.00, read-out: endo.tc.24hrs

Oc1cc(Cl)cc(-c2cccc(Cl)c2)c1 [5-OH PCB 11]
activity at 0.01 µM [1, 3]: 117% | activity at 0.01 µM [1, 4]: 105% | activity at 0.01 µM [1, 5]: 155% | activity at 0.01 µM [1, 6]: 155% | activity at 0.1 µM [1, 3]: 102% | activity at 0.1 µM [1, 4]: 110% | activity at 0.1 µM [1, 5]: 125% | activity at 0.1 µM [1, 6]: 125% | activity at 1 µM [1, 3]: 109% | activity at 1 µM [1, 4]: 124% | activity at 1 µM [1, 5]: 134% | activity at 1 µM [1, 6]: 132% | activity at 10 µM [1, 3]: 53.8% | activity at 10 µM [1, 4]: 26.9% | activity at 10 µM [1, 5]: 38.5% | activity at 10 µM [1, 6]: 37.3% | activity at 100 µM [1, 3]: 46.3% | activity at 100 µM [1, 4]: 12.3% | activity at 100 µM [1, 5]: 1.58% | activity at 100 µM [1, 6]: 2.12% | minimal effective concentration ([1]; iPSC-EC tube formation, top concentration 100.00 µM, read-out: endo.mtl.18hr POD): 5.28 µM | minimal effective concentration ([1]; iPSC-EC tube formation, top concentration 100.00 µM, read-out: endo.tlps.18hr POD): 5.71 µM | minimal effective concentration ([1]; iPSC-EC tube formation, top concentration 100.00 µM, read-out: endo.tta.18hr POD): 6.97 µM | minimal effective concentration ([1]; iPSC-EC tube formation, top concentration 100.00 µM, read-out: endo.ttl.18hr POD): 7.34 µM | viability at 0.01 µM [2, 7]: 99.9% | activity at 0.01 µM [2, 8]: 100% | activity at 0.01 µM [2, 9]: 96.8% | activity at 0.01 µM [2, 10]: 101% | viability at 0.01 µM [2, 11]: 99.9% | viability at 0.1 µM [2, 7]: 100% | activity at 0.1 µM [2, 8]: 100% | activity at 0.1 µM [2, 9]: 93.5% | activity at 0.1 µM [2, 10]: 100% | viability at 0.1 µM [2, 11]: 100% | viability at 1 µM [2, 7]: 102% | activity at 1 µM [2, 8]: 103% | activity at 1 µM [2, 9]: 92.3% | activity at 1 µM [2, 10]: 99.2% | viability at 1 µM [2, 11]: 102% | viability at 10 µM [2, 7]: 102% | activity at 10 µM [2, 8]: 103% | activity at 10 µM [2, 9]: 107% | activity at 10 µM [2, 10]: 98.6% | viability at 10 µM [2, 11]: 102% | viability at 100 µM [2, 7]: 19.9% | activity at 100 µM [2, 8]: 30.3% | activity at 100 µM [2, 9]: 62.5% | activity at 100 µM [2, 10]: 79.6% | viability at 100 µM [2, 11]: 47.2% | minimal effective concentration ([2]; iPSC-EC, top concentration 100.00 µM, read-out: endo.cyto.24hr POD): 42.3 µM | minimal effective concentration ([2]; iPSC-EC, top concentration 100.00 µM, read-out: endo.mito.24hr POD): 42.3 µM | minimal effective concentration ([2]; iPSC-EC, top concentration 100.00 µM, read-out: endo.mitoint.24hr POD): 55 µM | minimal effective concentration ([2]; iPSC-EC, top concentration 100.00 µM, read-out: endo.nma.24hr POD): 14.2 µM | minimal effective concentration ([2]; iPSC-EC, top concentration 100.00 µM, read-out: endo.tc.24hrs POD): 43.2 µM

Oc1cc(Cl)cc(-c2cccc(Cl)c2)c1 [5-OH-PCB 11]
minimal effective concentration ([1]; endothelial cells (endo), tube formation mtl, read-out: POD endo.mtl.18hr): 5.28 µM | minimal effective concentration ([1]; endothelial cells (endo), tube formation tlps, read-out: POD endo.tlps.18hr): 5.71 µM | minimal effective concentration ([1]; endothelial cells (endo), tube formation tta, read-out: POD endo.tta.18hr): 6.97 µM | minimal effective concentration ([1]; endothelial cells (endo), tube formation ttl, read-out: POD endo.ttl.18hr): 7.34 µM | minimal effective concentration ([2]; endothelial cells (endo), cyto, read-out: POD endo.cyto.24hr): 42.3 µM | minimal effective concentration ([2]; endothelial cells (endo), mito, read-out: POD endo.mito.24hr): 42.3 µM | minimal effective concentration ([2]; endothelial cells (endo), mitoint, read-out: POD endo.mitoint.24hr): 55 µM | minimal effective concentration ([2]; endothelial cells (endo), nma, read-out: POD endo.nma.24hr): 14.2 µM | minimal effective concentration ([2]; endothelial cells (endo), tc, read-out: POD endo.tc.24hr): 43.2 µM

Source: paper PMC7377239, “Cardiovascular Effects of Polychlorinated Biphenyls and Their Major Metabolites” (Environmental Health Perspectives, 2020)
